Assay type in all cases: cell-based
One assay concerns Micrococcus luteus. The protocol: (§1) The activity of the synthetic peptides was tested with respect to the Gram+ bacteria Mycrocossus luteus, Staphylococcus aureus, Staphylococcus epidermidis and Bacillus megaterium. The activities were determined according to the protocol described by HANCOCK et al. (http://www.interchg.ubc.ca/bobh/methods.htm)
(§2) The MIC was determined for each peptide by inhibition of growth in liquid medium. Doubling dilution of peptide was realized in the wells of a Microtest plate in a volume of 10 μl. The bacteria were grown in MUELLER HINTON BROTH (MHB, Difco) liquid medium. During the exponential growth phase, a solution with an optical density of 0.001 at 600 nm was produced, and 100 μl of this suspension were added to each well. The incubation lasted 24 h at 30° C., and the optical densities of each well were then measured at 600 nm. The value of the MIC corresponds to the first well for which the optical density had not changed.
(§3) The dishes were incubated for 24 h at 30° C. The value of the MBC corresponds to the lowest concentration of the peptide for which no colony developed.

Assay [1] concerns Gram+ and Gram− bacteria and a filamentous fungus. Kind of assay: Antibiotic tests on Gram+ and Gram- bacteria and on a filamentous fungus, summary in words. Conditions: compared with the native molecule or the minimal loop. The protocol:
as §1, §2, §3
(§4) The anti-fungal activity was determined by calculating the MIC in a growth inhibition assay for the shrimp parasite fungus Fusarium oxysporum, in liquid phase, according to the protocol described by FELHBAM et al. (J. Biol. Chem., 1994, 269:33159-63). Doubling dilutions of each peptide were realized in the wells of a Microtest plate in a volume of 10 μl. 90 μl of spores resuspended in potato dextrose broth medium (DIFCO) at a final concentration of 10^4 spores/ml were added to each well. The growth inhibition was measured after incubation for 24 h at 25° C. in the dark, by observation under an optical microscope and measurement of the increase in OD at 600 nm. The value of the MIC corresponds to the first well for which the optical density had not increased.
Using the 3-D structure of the native molecule as a basis, said molecule was fractionated into 17 elements (table I). All these fragments were synthesized and their activities were assayed using antibiotic tests on Gram+ and Gram− bacteria and on a filamentous fungus. The minimum inhibitory concentration (MIC) and minimum […] concentration (MBC) of each peptide were thus determined and were compared with those of the native molecule.

In another assay the test system is Bacillus megaterium. Conditions: Bacillus. The protocol: as §1, §2, §3
Another assay has as its system Staphylococcus aureus. As for the experimental part: as §1, §2, §3
Assay [2] deals with Staphylococcus epidermidis. As for the experimental part:
as §1, §2, §3

Another assay concerns Fusarium oxysporum. Conditions: 24 h. The protocol: as §4
In assay [3] the test system is Micrococcus lysodeikticus. As for the experimental part:
as §2, §3

In brackets after ≈: the same amount, converted by molar mass. Read-outs that look alike come from different tables or passages of the source. Positions of bridges follow the written chain, without caps; N, C: chain ends. Residues, ends and D or L forms follow the SMILES beside them. No end group written: not given here.

Regarding `C[C@@H](O)[C@@H]1NC(=O)[C@H](CO)NC(=O)[C@H](CO)NC(=O)[C@H](Cc2ccc(O)cc2)NC(=O)CNC(=O)CNC(=O)[C@@H](N)CSSC[C@@H](C(=O)NCC(=O)O)NC(=O)[C@H](CCCNC(=N)N)NC(=O)[C@H](Cc2ccc(O)cc2)NC(=O)[C@H](CO)NC1=O` [SEQ ID NO:16, CGGYSSTSYRCG] (H-CGGYSSTSYRCG-OH; disulfide 1-11; N-terminus and C-terminus assumed), the “MIC on M leuteus” value against Micrococcus luteus (24 h) is more than 75 µM. Further, the “anti-microbial activity (in words)” value in assay [1] is given as “do not comprise any intrinsic activity”.

As to `CC(C)C[C@@H]1NC(=O)[C@H](CCCNC(=N)N)NC(=O)[C@H](Cc2c[nH]cn2)NC(=O)[C@H](Cc2c[nH]c3ccccc23)NC(=O)CNC(=O)CNC(=O)[C@H](CO)NC(=O)[C@H](Cc2ccc(O)cc2)NC(=O)CNC(=O)CNC(=O)[C@@H](N)CSSC[C@@H](C(=O)NCC(=O)O)NC(=O)[C@H](CCCNC(=N)N)NC(=O)[C@H](Cc2ccc(O)cc2)NC(=O)[C@H](CO)NC(=O)[C@H]([C@@H](C)O)NC(=O)[C@H](CO)NC(=O)[C@H](CCCNC(=N)N)NC1=O` [SEQ ID NO:5, C^(S)GGYSGGWHRLRSTSYRC^(S)G] (H-CGGYSGGWHRLRSTSYRCG-OH; disulfide 1-18; N-terminus and C-terminus assumed), in the assay on Bacillus megaterium, the “Bacillus megaterium MBC” value turned out to be 75 µM and the “Bacillus megaterium MIC” value amounted to 24 µM. For the same compound, in the assay on Micrococcus luteus, the “Micrococcus luteus MBC” value is 18 µM and the “Micrococcus luteus MIC” value amounted to 18 µM. The “MBC on M leuteus” value against Micrococcus luteus (24 h) was 13 µM (≈ 27.3 µg/mL). Moreover, in the assay on Staphylococcus aureus, the “Staphylococcus aureus MBC” value is more than 75 µM and the “Staphylococcus aureus MIC” value worked out at 14 µM. In addition, in assay [2], the “Staphylococcus epidermidis MBC” value was more than 75 µM and the “Staphylococcus epidermidis MIC” value amounted to 35 µM. In addition, the “Fusarium oxysporum MIC” value with Fusarium oxysporum is 18.5 µM.

Take “PNNYQSHRHSKSIPGRGR [SEQ ID NO:10, PNNYQSHRHSKSIPGRGR]”: in the assay with Micrococcus luteus (24 h), the “MIC on M leuteus” value is more than 75 µM.

Take SGGWHRLRS [SEQ ID NO:17, SGGWHRLRS]: the “MIC on M leuteus” value against Micrococcus luteus (24 h) is more than 75 µM. For the same compound, the “anti-microbial activity (in words)” value in assay [1] was “devoid of activity”.

Consider RLRSTSYRSG [SEQ ID NO:18, RLRSTSYRSG], for which the “MIC on M leuteus” value in the assay with Micrococcus luteus (24 h) was more than 75 µM.

In the case of `CC[C@H](C)[C@@H]1NC(=O)[C@H](CO)NC(=O)[C@H](CCCCN)NC(=O)[C@@H](N)CSSC[C@@H](C(=O)NCC(=O)O)NC(=O)[C@H](CCCNC(=N)N)NC(=O)CNC(=O)[C@@H]2CCCN2C1=O` [SEQ ID NO:15, CKSIPGRCG] (H-CKSIPGRCG-OH; disulfide 1-8; N-terminus and C-terminus assumed), the “MIC on M leuteus” value in the assay on Micrococcus luteus (24 h) is more than 75 µM. Besides, the “anti-microbial activity (in words)” value in assay [1] is “show no activity”.

Take `CC(C)C[C@@H]1NC(=O)[C@H](CCCNC(=N)N)NC(=O)[C@H](Cc2c[nH]cn2)NC(=O)[C@H](Cc2c[nH]c3ccccc23)NC(=O)CNC(=O)CNC(=O)[C@@H](NC(=O)[C@H](Cc2ccc(O)cc2)NC(=O)CNC(=O)CNC(=O)[C@@H](N)CO)CSSC[C@@H](C(=O)O)NC(=O)[C@H](CCCNC(=N)N)NC1=O` [SEQ ID NO:4, SGGYC^(S)GGWHRLRS^(S)] (H-SGGYCGGWHRLRC-OH; disulfide 5-13; N-terminus and C-terminus assumed): in the assay with Bacillus megaterium, the “Bacillus megaterium MBC” value was more than 75 µM and the “Bacillus megaterium MIC” value turned out to be 52 µM. Also, in the assay with Micrococcus luteus, the “Micrococcus luteus MBC” value came to 13 µM and the “Micrococcus luteus MIC” value amounted to 26 µM. In the assay on Micrococcus luteus (24 h), the “MIC on M leuteus” value was found to be 67 µM (≈ 97.1 µg/mL). Besides, in the assay on Staphylococcus aureus, the “Staphylococcus aureus MBC” value is more than 75 µM and the “Staphylococcus aureus MIC” value came out at 67 µM. Besides, in assay [2], the “Staphylococcus epidermidis MBC” value was more than 75 µM and the “Staphylococcus epidermidis MIC” value amounted to 38 µM. The “Fusarium oxysporum MIC” value in the assay on Fusarium oxysporum was 41 µM.

With `N=C(N)NCCC[C@@H]1NC(=O)[C@H](CCCCN)NC(=O)[C@H](Cc2c[nH]c3ccccc23)NC(=O)[C@@H](N)CSSC[C@@H](C(=O)O)NC(=O)[C@H](CCCCN)NC1=O` [SEQ ID NO:24, C^(S)WKRKC^(S)] (H-CWKRKC-OH; disulfide 1-6; N-terminus and C-terminus assumed), in the assay with Staphylococcus aureus (Table III), the “Staphylococcus aureus MBC” value is more than 50 µM and the “Staphylococcus aureus MIC” value is more than 50 µM. In assay [3] (Table III), the “Micrococcus lysodeikticus MIC” value is more than 50 µM. Further, the “anti-microbial activity (in words)” value in assay [1] is “does not exhibit any significant biological activity”.

For the compound “PNNYQSHRHSKSIPGRS [SEQ ID NO:12, PNNYQSHRHSKSIPGRS]”, the “MIC on M leuteus” value against Micrococcus luteus (24 h) was more than 75 µM.

Regarding `N=C(N)NCCC[C@@H]1NC(=O)[C@H](CCCCN)NC(=O)[C@H](CCCNC(=N)N)NC(=O)[C@H](CCCCN)NC(=O)[C@H](Cc2c[nH]c3ccccc23)NC(=O)[C@H](CCCCN)NC(=O)[C@H](CCCCN)NC(=O)[C@@H](N)CSSC[C@@H](C(=O)O)NC1=O` [SEQ ID NO:21, C^(S)KKWKRKRC^(S)] (H-CKKWKRKRC-OH; disulfide 1-9; N-terminus and C-terminus assumed), in the assay with Staphylococcus aureus (Table III), the “Staphylococcus aureus MBC” value came to 9.9 µM and the “Staphylococcus aureus MIC” value came to 4.4 µM. Moreover, the “Staphylococcus epidermidis MIC” value in assay [2] (Table III) was found to be 6.8 µM. In assay [3] (Table III), the “Micrococcus lysodeikticus MBC” value came out at 9.9 µM and the “Micrococcus lysodeikticus MIC” value was 6 µM.

Turning to `N=C(N)NCCC[C@@H]1NC(=O)[C@H](CCCCN)NC(=O)[C@H](CCCNC(=N)N)NC(=O)[C@H](CCCCN)NC(=O)[C@H](Cc2c[nH]c3ccccc23)NC(=O)CNC(=O)CNC(=O)[C@@H](N)CSSC[C@@H](C(=O)O)NC1=O` [SEQ ID NO:20, C^(S)GGWKRKRC^(S)] (H-CGGWKRKRC-OH; disulfide 1-9; N-terminus and C-terminus assumed), in the assay with Staphylococcus aureus, the “Staphylococcus aureus MBC” value turned out to be 16 µM and the “Staphylococcus aureus MIC” value is 23 µM. Besides, the “Micrococcus lysodeikticus MIC” value in assay [3] is 8 µM.

For the compound `N=C(N)NCCC[C@@H]1NC(=O)[C@H](CCCCN)NC(=O)[C@H](CCCNC(=N)N)NC(=O)[C@H](CCCCN)NC(=O)[C@H](Cc2c[nH]c3ccccc23)NC(=O)[C@H](CCCCN)NC(=O)[C@@H](N)CSSC[C@@H](C(=O)O)NC1=O` [SEQ ID NO:22, C^(S)KWKRKRC^(S)] (H-CKWKRKRC-OH; disulfide 1-8; N-terminus and C-terminus assumed), in the assay on Staphylococcus aureus (Table III), the “Staphylococcus aureus MBC” value stood at 14.8 µM and the “Staphylococcus aureus MIC” value came to 6.6 µM. Further, in assay [3] (Table III), the “Micrococcus lysodeikticus MBC” value was 14.8 µM and the “Micrococcus lysodeikticus MIC” value came to 14.8 µM.

Turning to `CC(C)C[C@@H]1NC(=O)[C@H](CCCNC(=N)N)NC(=O)[C@H](CCCCN)NC(=O)[C@H](Cc2c[nH]c3ccccc23)NC(=O)CNC(=O)CNC(=O)[C@@H](N)CSSC[C@@H](C(=O)O)NC(=O)[C@H](CCCNC(=N)N)NC1=O` [SEQ ID NO:19, C^(S)GGWKRLRC^(S)] (H-CGGWKRLRC-OH; disulfide 1-9; N-terminus and C-terminus assumed), in the assay with Staphylococcus aureus, the “Staphylococcus aureus MBC” value is 20 µM and the “Staphylococcus aureus MIC” value was 33 µM. The “Micrococcus lysodeikticus MIC” value in assay [3] was 13 µM.

Consider SKSIPGRSG [SEQ ID NO:14, SKSIPGRSG], for which the “MIC on M leuteus” value against Micrococcus luteus (24 h) was more than 75 µM. Moreover, in assay [1], the “anti-microbial activity (in words)” value is “show no activity”.

Consider GFGSPNNYQS [SEQ ID NO:8, GFGSPNNYQS], for which, in the assay on Micrococcus luteus (24 h), the “MIC on M leuteus” value was more than 75 µM.

Take `N=C(N)NCCC[C@@H]1NC(=O)[C@H](CCCCN)NC(=O)[C@H](CCCNC(=N)N)NC(=O)[C@H](CCCCN)NC(=O)[C@H](Cc2c[nH]c3ccccc23)NC(=O)[C@@H](N)CSSC[C@@H](C(=O)O)NC1=O` [SEQ ID NO:23, C^(S)WKRKRC^(S)] (H-CWKRKRC-OH; disulfide 1-7; N-terminus and C-terminus assumed): in the assay on Staphylococcus aureus (Table III), the “Staphylococcus aureus MBC” value is 22.2 µM and the “Staphylococcus aureus MIC” value is 22.2 µM. Besides, in assay [3] (Table III), the “Micrococcus lysodeikticus MIC” value is 22.2 µM. The “anti-microbial activity (in words)” value in assay [1] is listed as “weaker”.

With NYQSHRHSKS [SEQ ID NO:13, NYQSHRHSKS], the “MIC on M leuteus” value in the assay on Micrococcus luteus (24 h) was more than 75 µM.

Take GFGSPNNYQSHRHSKSIPGR [SEQ ID NO:9]: the “MIC on M leuteus” value in the assay with Micrococcus luteus (24 h) was more than 75 µM.

Take `CC[C@H](C)[C@@H]1NC(=O)[C@H](CO)NC(=O)[C@H](CCCCN)NC(=O)[C@@H](NC(=O)[C@H](Cc2c[nH]cn2)NC(=O)[C@H](CCCNC(=N)N)NC(=O)[C@H](Cc2c[nH]cn2)NC(=O)[C@H](CO)NC(=O)[C@H](CCC(N)=O)NC(=O)[C@H](Cc2ccc(O)cc2)NC(=O)[C@H](CC(N)=O)NC(=O)[C@H](CC(N)=O)NC(=O)[C@@H]2CCCN2)CSSC[C@@H](C(=O)O)NC(=O)[C@H](CCCNC(=N)N)NC(=O)CNC(=O)[C@@H]2CCCN2C1=O` [SEQ ID NO:11, PNNYQSHRHCKSIPGRC] (H-PNNYQSHRHCKSIPGRC-OH; disulfide 10-17; N-terminus and C-terminus assumed): the “MIC on M leuteus” value in the assay with Micrococcus luteus (24 h) is more than 75 µM.

These data come from patent US20060241026A1, “Novel cyclic peptides and use thereof as anti-microbial agents” (priority 2002, published 2006).
